Consider 22 compounds from patent publication US9132140B2, “Boronic acid derivatives and therapeutic uses thereof” (Rempex Pharmaceuticals, Inc., priority 2013, dated 2015).

Like-named read-outs stand apart in the source and are kept apart here.

Test [1] relates to KP1087 (KPC-2, CTX-M-15, SHV-11, TEM-1). The class given is cell-based, Klebsiella pneumoniae. Conditions: KP1087; alone. The source says:
(§1) The results are present in Table 6.
(§2) The results are present in Table 7.

Test [2] has as its system KP1081 (NDM-1, TEM-1, SHV-11, CMY-6, CTX-M-15). In kind it is cell-based, Klebsiella pneumoniae. Conditions: KP1081; alone.
Excerpt: as §1, §2

The target of another test is CMY-2 (Klebsiella pneumoniae, UniProt Q48434). In words: Inhibition of purified beta-lactamase, nitrocefin cleavage. The class given is biochemical. The procedure:
(§3) Purified enzymes were mixed with various concentrations of inhibitors in reaction buffer and incubated for 10 min at room temperature. Nitrocefin was added and substrate cleavage profiles were recorded at 490 nm every 10 sec for 10 min.

Test [3] deals with T1, KPC-2 (Klebsiella pneumoniae, UniProt Q9F663). Described as above. The class given is biochemical. Conditions: read-out: Ki (KPC-2, NCF). The method, then: as §3
T1 sequence (Q9F663 25-293, looked up, species assumed): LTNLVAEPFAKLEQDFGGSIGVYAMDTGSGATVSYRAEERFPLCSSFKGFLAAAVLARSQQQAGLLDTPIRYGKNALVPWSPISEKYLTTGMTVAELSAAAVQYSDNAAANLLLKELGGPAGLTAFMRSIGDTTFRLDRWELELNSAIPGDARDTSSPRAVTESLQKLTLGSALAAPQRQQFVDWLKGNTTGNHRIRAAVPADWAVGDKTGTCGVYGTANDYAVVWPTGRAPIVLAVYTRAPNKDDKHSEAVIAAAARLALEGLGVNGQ
The target in the next test is OXA-48 (Klebsiella pneumoniae, UniProt Q6XEC0). The description is as above. The class given is biochemical. Conditions: read-out: Ki (OXA-48, NCF). The procedure:
as §3

A further test deals with CTX-M-14 (Escherichia coli, UniProt Q9L5C7). The description is as above. The class given is biochemical. The method, then:
as §3

The target in another test is P99/AmpC of ECL (Enterobacter cloacae, UniProt P05364). In words: biochemical. Conditions: nitrocefin; read-out: Ki (P99/AmpC of ECL, NCF). The procedure:
as §3

A further test addresses SHV-12 (Klebsiella pneumoniae, UniProt P0AD64, E235K/G234S/L31Q). In words: Inhibition of purified beta-lactamase, nitrocefin cleavage. The class given is biochemical. Conditions: read-out: Ki (SHV-12, NCF). The method, then:
as §3

Test [4] concerns the target T1, KPC-2. As to the kind of experiment: Inhibition of purified class A carbapenemase, biapenem cleavage. In kind it is biochemical. Conditions: substrate biapenem 100 μM.
Another test concerns the target NDM-1 (Klebsiella pneumoniae, UniProt C7C422). As to the kind of experiment: biochemical. Conditions: substrate imipenem 100 μM.
Where [5] appears, read: nitrocefin, read-out: Ki (CMY-2, NCF).

Chain of P99/AmpC of ECL (P05364 21-381): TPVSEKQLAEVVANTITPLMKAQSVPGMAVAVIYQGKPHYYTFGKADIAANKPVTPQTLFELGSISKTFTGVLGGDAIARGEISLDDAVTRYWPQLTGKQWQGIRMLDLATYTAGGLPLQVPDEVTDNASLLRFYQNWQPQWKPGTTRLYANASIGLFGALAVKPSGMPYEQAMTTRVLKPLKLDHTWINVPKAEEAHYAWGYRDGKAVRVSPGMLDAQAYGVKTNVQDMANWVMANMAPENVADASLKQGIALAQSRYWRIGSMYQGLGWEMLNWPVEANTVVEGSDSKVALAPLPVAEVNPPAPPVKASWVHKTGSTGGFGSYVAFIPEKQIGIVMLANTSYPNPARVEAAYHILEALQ
Chain of CTX-M-14 (Q9L5C7 entry or part of it): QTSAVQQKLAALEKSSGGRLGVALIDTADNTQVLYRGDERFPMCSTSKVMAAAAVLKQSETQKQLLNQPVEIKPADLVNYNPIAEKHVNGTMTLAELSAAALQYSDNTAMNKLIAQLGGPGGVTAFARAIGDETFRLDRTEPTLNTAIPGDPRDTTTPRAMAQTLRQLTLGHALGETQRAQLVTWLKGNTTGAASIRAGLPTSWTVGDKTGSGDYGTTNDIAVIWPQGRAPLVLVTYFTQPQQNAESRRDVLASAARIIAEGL
Chain of OXA-48 (Q6XEC0 23-265, looked up): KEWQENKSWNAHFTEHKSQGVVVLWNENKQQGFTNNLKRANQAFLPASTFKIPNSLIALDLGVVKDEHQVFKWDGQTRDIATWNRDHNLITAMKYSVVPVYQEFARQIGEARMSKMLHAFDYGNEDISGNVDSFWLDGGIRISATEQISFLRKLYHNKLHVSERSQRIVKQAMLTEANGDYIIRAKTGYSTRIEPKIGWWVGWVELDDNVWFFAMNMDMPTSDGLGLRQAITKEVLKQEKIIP
Chain of CMY-2 (Q48434 21-381, species assumed): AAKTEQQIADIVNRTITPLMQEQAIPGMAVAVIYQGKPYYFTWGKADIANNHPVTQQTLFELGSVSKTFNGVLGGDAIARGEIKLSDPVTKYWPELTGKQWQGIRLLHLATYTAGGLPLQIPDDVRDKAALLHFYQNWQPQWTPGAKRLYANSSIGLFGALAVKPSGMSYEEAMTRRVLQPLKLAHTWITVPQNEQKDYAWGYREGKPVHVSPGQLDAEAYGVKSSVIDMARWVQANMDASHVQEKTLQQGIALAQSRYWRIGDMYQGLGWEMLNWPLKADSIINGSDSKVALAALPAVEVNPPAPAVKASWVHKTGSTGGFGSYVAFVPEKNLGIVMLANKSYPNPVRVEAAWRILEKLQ
Chain of SHV-12 (P0AD64 22-286 L31Q/G234S/E235K): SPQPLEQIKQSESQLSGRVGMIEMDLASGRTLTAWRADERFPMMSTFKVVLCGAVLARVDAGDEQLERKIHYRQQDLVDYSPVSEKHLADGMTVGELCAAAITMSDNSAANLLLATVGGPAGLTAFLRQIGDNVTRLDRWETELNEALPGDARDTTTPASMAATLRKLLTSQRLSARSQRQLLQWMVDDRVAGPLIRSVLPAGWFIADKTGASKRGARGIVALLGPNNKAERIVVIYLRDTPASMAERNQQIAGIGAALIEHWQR
Chain of NDM-1 (C7C422 29-270, looked up, species assumed): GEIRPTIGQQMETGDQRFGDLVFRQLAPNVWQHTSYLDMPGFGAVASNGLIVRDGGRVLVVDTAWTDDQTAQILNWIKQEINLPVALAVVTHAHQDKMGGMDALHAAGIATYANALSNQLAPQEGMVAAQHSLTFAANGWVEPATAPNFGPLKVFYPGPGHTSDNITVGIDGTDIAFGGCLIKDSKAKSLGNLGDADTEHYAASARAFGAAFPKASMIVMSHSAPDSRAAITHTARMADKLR

For `C[C@@H](O)[C@H]1C(=O)N2C(C(=O)[O-])=C(SC3Cn4cnc[n+]4C3)[C@H](C)[C@H]12` (some centres unmarked) [Biapenem], the “Carbapenem MIC alone” value in [1] and in test [2] was “Z (MIC of greater than 10 μg/mL)” throughout.

Consider `O=C(O)[C@H]1/C(=C/CO)O[C@@H]2CC(=O)N21` [Clavulanic acid, reference compound], for which the Ki at CMY-2 (setting [5]) is above 1000 nM; at KPC-2 [3], above 1000 nM; on OXA-48, above 1000 nM; at CTX-M-14 (nitrocefin, read-out: Ki (CTX-M-14, NCF)) it was below 100 nM.

In the case of `O=C(O)c1cccc2c1OB(O)[C@@H](Sc1nnc[nH]1)C2` [Compound 2, (R)-3-(4H-1,2,4-triazol-3-ylthio)-2-hydroxy-3,4-dihydro-2H-benzo[e][1,2]oxaborinine-8-carboxylic acid], the Ki on P99/AmpC of ECL was 100 to 1000 nM; on CMY-2 (setting [5]) it was 100 to 1000 nM; at SHV-12, below 100 nM; at KPC-2 [3], 100 to 1000 nM; on OXA-48 it was below 100 nM; at CTX-M-14, 100 to 1000 nM. Moreover, the Ki on KPC-2 [4] is 10 to 100 nM.

Consider `NC(=O)CS[C@H]1Cc2cccc(C(=O)O)c2OB1O` [Compound 3, (R)-3-(2-amino-2-oxoethylthio)-2-hydroxy-3,4-dihydro-2H-benzo[e][1,2]oxaborinine-8-carboxylic acid], for which the Ki on P99/AmpC of ECL was below 100 nM; on CMY-2 (setting [5]) it was below 100 nM; at SHV-12 it was 100 to 1000 nM; at KPC-2 [3], below 100 nM; on OXA-48, below 100 nM; on CTX-M-14, below 100 nM. In addition, on KPC-2 [4], the Ki was in the range of 10 to 100 nM.

Turning to `Nc1nnc(S[C@H]2Cc3cccc(C(=O)O)c3OB2O)s1` [Compound 4, (R)-3-(5-amino-1,3,4-thiadiazol-2-ylthio)-2-hydroxy-3,4-dihydro-2H-benzo[e][1,2]oxaborinine-8-carboxylic acid], the Ki at P99/AmpC of ECL, on CMY-2 (setting [5]), at SHV-12, at OXA-48 and at CTX-M-14 was below 100 nM in each case.

Take `CC(=O)Nc1nnc(S[C@H]2Cc3cccc(C(=O)O)c3OB2O)s1` [Compound 7, (R)-3-(5-acetamido-1,3,4-thiadiazol-2-ylthio)-2-hydroxy-3,4-dihydro-2H-benzo[e][1,2]oxaborinine-8-carboxylic acid]: the Ki at P99/AmpC of ECL, on CMY-2 (setting [5]), on SHV-12, at OXA-48 and at CTX-M-14 was below 100 nM throughout.

`NC(=O)CCS[C@H]1Cc2cccc(C(=O)O)c2OB1O` [Compound 9, (R)-3-(3-amino-3-oxopropylthio)-2-hydroxy-3,4-dihydro-2H-benzo[e][1,2]oxaborinine-8-carboxylic acid]: the Ki was below 100 nM on P99/AmpC of ECL; below 100 nM at CMY-2 (setting [5]); 100 to 1000 nM on SHV-12; below 100 nM at KPC-2 [3]; below 100 nM on OXA-48; below 100 nM on CTX-M-14.

Regarding `CC(=N)S[C@H]1Cc2cccc(C(=O)O)c2OB1O` [Compound 10, (R)-2-hydroxy-3-(1-iminoethylthio)-3,4-dihydro-2H-benzo[e][1,2]oxaborinine-8-carboxylic acid], the Ki at KPC-2 [3] was in the range of 100 to 1000 nM.

For the compound `O=C(O)c1cccc2c1OB(O)[C@@H](Sc1nccs1)C2` [Compound 11, (R)-2-hydroxy-3-(thiazol-2-ylthio)-3,4-dihydro-2H-benzo[e][1,2]oxaborinine-8-carboxylic acid], the Ki at P99/AmpC of ECL, at CMY-2 (setting [5]), on SHV-12 and at OXA-48 was below 100 nM in each case.

For `O=C(O)c1cccc2c1OB(O)[C@@H](Sc1c[nH]nn1)C2` [Compound 12, (R)-3-(1H-1,2,3-triazol-4-ylthio)-2-hydroxy-3,4-dihydro-2H-benzo[e][1,2]oxaborinine-8-carboxylic acid], at KPC-2 [3], the Ki was 100 to 1000 nM.

For `Cn1cnnc1S[C@H]1Cc2cccc(C(=O)O)c2OB1O` [Compound 15, (R)-2-hydroxy-3-(4-methyl-4H-1,2,4-triazol-3-ylthio)-3,4-dihydro-2H-benzo[e][1,2]oxaborinine-8-carboxylic acid], the Ki at P99/AmpC of ECL was below 100 nM; on CMY-2 (setting [5]) it was below 100 nM; on SHV-12, below 100 nM; on KPC-2 [3], 100 to 1000 nM; at OXA-48, below 100 nM; on CTX-M-14, below 100 nM. Also, the Ki is below 10 nM at NDM-1 and 10 to 100 nM on KPC-2 [4].

As to `CS[C@H]1Cc2cccc(C(=O)O)c2OB1O` [Compound 16, (R)-2-hydroxy-3-(methylthio)-3,4-dihydro-2H-benzo[e][1,2]oxaborinine-8-carboxylic acid], the Ki at P99/AmpC of ECL is below 100 nM; on SHV-12, 100 to 1000 nM; at KPC-2 [3] it was below 100 nM; at OXA-48 it was below 100 nM; on CTX-M-14 it was below 100 nM; on NDM-1 it was above 100 nM. The same compound yielded a Ki on KPC-2 [4] of 10 to 100 nM.

As to `CO[C@H]1Cc2cccc(C(=O)O)c2OB1O` [Compound 17, (R)-2-hydroxy-3-methoxy-3,4-dihydro-2H-benzo[e][1,2]oxaborinine-8-carboxylic acid], the Ki on P99/AmpC of ECL, at SHV-12, at KPC-2 [3], at OXA-48 and on CTX-M-14 was below 100 nM each time.

Consider `O=C(O)c1cccc2c1OB(O)[C@@H](OC1CNC1)C2` [Compound 18, (R)-3-(azetidin-3-yloxy)-2-hydroxy-3,4-dihydro-2H-benzo[e][1,2]oxaborinine-8-carboxylic acid], for which the Ki on P99/AmpC of ECL was 100 to 1000 nM; at SHV-12, below 100 nM; on KPC-2 [3], 100 to 1000 nM; on OXA-48, below 100 nM; on CTX-M-14 it was 100 to 1000 nM.

With `CO[C@H]1Cc2ccc(F)c(C(=O)O)c2OB1O` [Compound 19, (R)-7-fluoro-2-hydroxy-3-methoxy-3,4-dihydro-2H-benzo[e][1,2]oxaborinine-8-carboxylic acid], the Ki at P99/AmpC of ECL is below 100 nM; on SHV-12 it was below 100 nM; at KPC-2 [3] it was below 100 nM; on OXA-48, below 100 nM; at CTX-M-14, below 100 nM; at NDM-1, above 100 nM.

`Nn1cnnc1S[C@H]1Cc2ccc(F)c(C(=O)O)c2OB1O` [Compound 20, (R)-3-(4-amino-4H-1,2,4-triazol-3-ylthio)-7-fluoro-2-hydroxy-3,4-dihydro-2H-benzo[e][1,2]oxaborinine-8-carboxylic acid]: the Ki at P99/AmpC of ECL is 100 to 1000 nM; at SHV-12 it was below 100 nM; at KPC-2 [3], 100 to 1000 nM; at OXA-48, 100 to 1000 nM; at CTX-M-14 it was below 100 nM.

As to `NC(=O)CC1Cc2cccc(C(=O)O)c2OB1O` (centres unmarked) [Compound 22, 3-(2-amino-2-oxoethyl)-2-hydroxy-3,4-dihydro-2H-benzo[e][1,2]oxaborinine-8-carboxylic acid], the Ki on P99/AmpC of ECL, at CMY-2 (setting [5]), on SHV-12, at KPC-2 [3], on OXA-48 and on CTX-M-14 was below 100 nM in each case.

Turning to `Nc1nnc(S[C@H]2Cc3ccc(F)c(C(=O)O)c3OB2O)s1` [Compound 23, (R)-3-(5-amino-1,3,4-thiadiazol-2-ylthio)-7-fluoro-2-hydroxy-3,4-dihydro-2H-benzo[e][1,2]oxaborinine-8-carboxylic acid], the Ki at P99/AmpC of ECL, on SHV-12, at KPC-2 [3], on OXA-48 and at CTX-M-14 was below 100 nM in each case.

In the case of `Cn1cnnc1S[C@H]1Cc2ccc(F)c(C(=O)O)c2OB1O` [Compound 24, (R)-7-fluoro-2-hydroxy-3-(4-methyl-4H-1,2,4-triazol-3-ylthio)-3,4-dihydro-2H-benzo[e][1,2]oxaborinine-8-carboxylic acid], the Ki is 100 to 1000 nM at P99/AmpC of ECL; below 100 nM on SHV-12; 100 to 1000 nM on KPC-2 [3]; below 100 nM at OXA-48; below 100 nM at CTX-M-14.

In the case of `CSc1ccc2c(c1C(=O)O)OB(O)[C@@H](Sc1nncn1N)C2` [Compound 25, (R)-3-(4-amino-4H-1,2,4-triazol-3-ylthio)-2-hydroxy-7-(methylthio)-3,4-dihydro-2H-benzo[e][1,2]oxaborinine-8-carboxylic acid], the Ki at P99/AmpC of ECL is 100 to 1000 nM; on SHV-12, below 100 nM; on KPC-2 [3] it was 100 to 1000 nM; on OXA-48 it was below 100 nM; at CTX-M-14 it was below 100 nM.

Consider `C[C@@H](O)[C@H]1C(=O)N2C(C(=O)O)=C(S[C@@H]3CN[C@H](CNS(N)(=O)=O)C3)[C@H](C)[C@H]12` [Doripenem], for which the “Carbapenem MIC alone” value in [1] and in [2] was “Z (MIC of greater than 10 μg/mL)” in each case.

Take `C[C@]1(Cn2ccnn2)[C@H](C(=O)O)N2C(=O)C[C@H]2S1(=O)=O` [Tazobactam, reference compound]: the Ki on CMY-2 was 100 to 1000 nM; at KPC-2 [3] it was above 1000 nM; at OXA-48 it was 100 to 1000 nM.
